Data set [1] in a line: Caco2 assay (permeability, Papp A-B). In kind it is in vitro ADME. The conditions noted are these: human, Caco-2, absorptive direction (A-B), 50 μM test compound, 4% BSA in receiver. The method in brief:
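Caco-2 monolayers, 22-25 days on Transwells, TEER 300 Ω·cm^2, dosed apically with 50 μM compound in HBSS; basolateral HBSS with 4% BSA. 120 min at 37 °C, samples quantified by LCMS; Papp (A-B) from receiver-side cumulative flux slope, donor volume, surface area and initial donor amount.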

Another data set concerns the target KRAS G12D (Homo sapiens, UniProt P01116, G12D). As to the kind of experiment: GDP-GTP exchange assay (KRAS G12D).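 Also: one dagger IC50 up to 100 nM and two daggers above 100 nM up to 1 μM.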 The format is biochemical. The conditions noted are these: bodipy-GDP/GppNHp exchange with SOS1; 4 h pre-incubation, 2 h reaction. The method in brief: (§1)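 Bodipy-GDP-loaded KRAS (2.5 nM final) was pre-incubated 4 h at r.t. with inhibitor in Hepes pH 7.5 buffer with MgCl2, then exchange started with GppNHp (500 μM) and SOS1 (150 nM) final. Fluorescence (ex 485/em 520 nm) read after 2 h for G12D, 3 h for G12V; IC50 from four-parameter logistic fit.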

A further data set deals with KRAS G12V (Homo sapiens, UniProt P01116, G12V). As to the kind of experiment: GDP-GTP exchange assay (KRAS G12V).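 Also: one dagger IC50 up to 100 nM and two daggers above 100 nM up to 1 μM.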 In kind it is biochemical. The conditions noted are these: bodipy-GDP/GppNHp exchange with SOS1; 3 h incubation after GppNHp-SOS1. The method in brief:
as §1

Sequence of KRAS G12D (P01116 1-188 isoform P01116-2 G12D): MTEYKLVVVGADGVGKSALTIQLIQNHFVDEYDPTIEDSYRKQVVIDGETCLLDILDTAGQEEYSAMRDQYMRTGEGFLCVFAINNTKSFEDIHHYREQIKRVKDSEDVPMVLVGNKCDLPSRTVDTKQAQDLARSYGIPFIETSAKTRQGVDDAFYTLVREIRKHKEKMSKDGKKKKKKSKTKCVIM
Sequence of KRAS G12V (P01116 1-188 isoform P01116-2 G12V): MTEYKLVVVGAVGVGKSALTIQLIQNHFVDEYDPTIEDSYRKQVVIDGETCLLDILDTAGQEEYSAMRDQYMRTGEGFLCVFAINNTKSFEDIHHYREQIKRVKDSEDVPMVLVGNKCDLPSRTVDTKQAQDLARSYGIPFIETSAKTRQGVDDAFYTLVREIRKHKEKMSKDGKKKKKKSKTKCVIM

Turning to `Cc1nc2c(F)c(-c3cccc(Cl)c3Cl)c(CCC#N)cc2c2c1cc([C@H]1[C@@H]3COC(=O)[C@@H](C3)N1C(=O)C1CC1)n2[C@H]1[C@H]2CN[C@@H]1C2` (atropisomer, axis not shown; (Ra)) [Example 116, 3-((Ra)-1-((1R,4R,5S)-2-Azabicyclo[2.1.1]hexan-5-yl)-2-((1R,5R,7R)-6-(cyclopropanecarbonyl)-4-oxo-3-oxa-6-azabicyclo[3.2.1]octan-7-yl)-7-(2,3-dichlorophenyl)-6-fluoro-4-methyl-1H-pyrrolo[3,2-c]quinolin-8-yl)propanenitrile], the apparent permeability from apical to basolateral (Papp A→B) at 120 min, 50 μM in data set [1] was ≤ 5 nm/s. Also, the “G12D_exchange (KRAS_G12D exchange assay IC50)” value (“G12D_exchange” below) on KRAS G12D is on record as “†”. In addition, the “G12V_exchange (KRAS_G12V exchange assay IC50)” value (“G12V_exchange” for short) at KRAS G12V is “†”.
Consider `Cc1nc2c(F)c(-c3cccc(Cl)c3Cl)c(CCC#N)cc2c2c1cc([C@H]1CCN(c3ccccc3)CCN1C(=O)C1CC1)n2[C@H]1[C@H]2CN[C@@H]1C2` (atropisomer, axis not shown; (Ra)) [Example 117, 3-((Ra)-1-((1R,4R,5S)-2-Azabicyclo[2.1.1]hexan-5-yl)-2-((R)-4-(cyclopropanecarbonyl)-1-phenyl-1,4-diazepan-5-yl)-7-(2,3-dichlorophenyl)-6-fluoro-4-methyl-1H-pyrrolo[3,2-c]quinolin-8-yl)propanenitrile], for which, in data set [1], the Papp A→B at 120 min, 50 μM is > 10 nm/s. Besides, at KRAS G12D, the “G12D_exchange” value is “†”. For the same molecule, the “G12V_exchange” value at KRAS G12V is “†”.
For the molecule `Cc1nc2c(F)c(-c3cccc(Cl)c3Cl)c(CCC#N)cc2c2c1cc([C@H]1C[C@H]3C[C@H](CN3c3ccccn3)N1C(=O)C1CC1)n2[C@H]1[C@H]2CN[C@@H]1C2` (atropisomer, axis not shown; (Ra)) [Example 118, 3-((Ra)-1-((1R,4R,5S)-2-Azabicyclo[2.1.1]hexan-5-yl)-2-((1R,3R,5R)-2-(cyclopropanecarbonyl)-6-(pyridin-2-yl)-2,6-diazabicyclo[3.2.1]octan-3-yl)-7-(2,3-dichlorophenyl)-6-fluoro-4-methyl-1H-pyrrolo[3,2-c]quinolin-8-yl)propanenitrile], the apical-to-basolateral permeability (Papp A→B) at 120 min, 50 μM in data set [1] is ≤ 5 nm/s. The “G12D_exchange” value on KRAS G12D is given as “†”. In addition, the “G12V_exchange” value at KRAS G12V is recorded as “†”.
Take `Cc1nc2c(F)c(-c3cccc(Cl)c3Cl)c(CCC#N)cc2c2c1cc([C@H]1C[C@H]3C[C@H](CN3C(=O)c3ccccc3)N1C(=O)C1CC1)n2[C@H]1[C@H]2CN[C@@H]1C2` (atropisomer, axis not shown; (Ra)) [Example 119, 3-((Ra)-2-((1R,3R,5R)-6-Benzoyl-2-(cyclopropanecarbonyl)-2,6-diazabicyclo[3.2.1]octan-3-yl)-1-((1R,4R,5S)-2-azabicyclo[2.1.1]hexan-5-yl)-7-(2,3-dichlorophenyl)-6-fluoro-4-methyl-1H-pyrrolo[3,2-c]quinolin-8-yl)propanenitrile]: the apical-to-basolateral permeability (Papp A→B) at 120 min, 50 μM in data set [1] was ≤ 5 nm/s. Further, on KRAS G12D, the “G12D_exchange” value was “†”. Moreover, at KRAS G12V, the “G12V_exchange” value was “†”.
Consider `COC(=O)N1[C@@H]2C[C@@H](CN(c3cc(C(C)(F)F)ncn3)C2)[C@@H]1c1cc2c(C)nc3c(F)c(-c4cccc(Cl)c4Cl)c(CCC#N)cc3c2n1[C@H]1[C@H]2CN[C@@H]1C2` (atropisomer, axis not shown; (Ra)) [Example 124, Methyl (1 S,5R,7R)-7-((Ra)-1-((1R,4R,5S)-2-azabicyclo[2.1.1]hexan-5-yl)-8-(2-cyanoethyl)-7-(2,3-dichlorophenyl)-6-fluoro-4-methyl-1H-pyrrolo[3,2-c]quinolin-2-yl)-3-(6-(1,1-difluoroethyl)pyrimidin-4-yl)-3,6-diazabicyclo[3.2.1]octane-6-carboxylate], for which, in data set [1], the Papp A→B at 120 min, 50 μM is ≤ 5 nm/s. The “G12D_exchange” value at KRAS G12D is “†”. For the same molecule, the “G12V_exchange” value at KRAS G12V was “†”.
Regarding `Cc1nc2c(F)c(-c3cccc(Cl)c3Cl)c(CCC#N)cc2c2c1cc([C@H]1[C@H]3C[C@H](CN(c4ccc(C(F)(F)F)cn4)C3)N1C(=O)C1CC1)n2[C@H]1[C@H]2CN[C@@H]1C2` [Example 30, 3-((Ra)-1-((1R,4R,5S)-2-Azabicyclo[2.1.1]hexan-5-yl)-2-((1 S,5R,7R)-6-(cyclopropanecarbonyl)-3-(5-(trifluoromethyl)pyridin-2-yl)-3,6-diazabicyclo[3.2.1]octan-7-yl)-7-(2,3-dichlorophenyl)-6-fluoro-4-methyl-1H-pyrrolo[3,2-c]quinolin-8-yl)propanenitrile], in data set [1], the Papp A→B at 120 min, 50 μM is ≤ 5 nm/s. Besides, the “G12D_exchange” value on KRAS G12D was “†”. Further, the “G12V_exchange” value on KRAS G12V is given as “†”.
Turning to `Cc1nc2c(F)c(-c3cccc(Cl)c3Cl)c(CCC#N)cc2c2c1cc([C@H]1[C@H]3C[C@H](CN(c4ccnc(C(=O)N(C)C)c4)C3)N1C(=O)C1CC1)n2[C@H]1[C@H]2CN[C@@H]1C2` [Example 64, 4-((1S,5R,7R)-7-((Ra)-1-((1R,4R,5S)-2-azabicyclo[2.1.1]hexan-5-yl)-8-(2-cyanoethyl)-7-(2,3-dichlorophenyl)-6-fluoro-4-methyl-1H-pyrrolo[3,2-c]quinolin-2-yl)-6-(cyclopropanecarbonyl)-3,6-diazabicyclo[3.2.1]octan-3-yl)-N,N-dimethylpicolinamide], the apparent permeability from apical to basolateral (Papp A→B) at 120 min, 50 μM in data set [1] was ≤ 5 nm/s. The “G12D_exchange” value on KRAS G12D is given as “†”. Further, the “G12V_exchange” value on KRAS G12V is on record as “†”.
